Measured values published in DBAASP.
Converted amounts (≈) assume the structure as drawn. One block for each compound: values may come before it.

Columns and labels:
Test in all cases: ≥ marks a high value that may be exact or a test limit, other limits are often not marked, values filed in µg/mL are converted to µM
Acinetobacter baumannii = system: Acinetobacter baumannii
[1] = system: Candida albicans ATCC 90028
[2] = system: Escherichia coli ATCC 25726
[3] = system: Klebsiella pneumoniae ATCC 700603
[4] = system: Proteus mirabilis ATCC 25933
[5] = system: Pseudomonas aeruginosa ATCC 27853
[6] = system: Staphylococcus aureus ATCC 25923
[7] = system: Staphylococcus aureus ATCC 29213
[8] = system: Staphylococcus epidermidis RP62A/1
[9] = system: Staphylococcus epidermidis RP62A
[10] = system: Stenotrophomonas maltophilia
[11] = system: Bacillus subtilis IFO 3513
[12] = system: Escherichia coli IFO 12734
[13] = system: Micrococcus luteus ATCC 9341
[14] = system: Staphylococcus aureus IFO 12732
[15] = system: Bacillus subtilis ATCC 6633
[16] = system: Candida albicans ATCC 20032
[17] = system: Escherichia coli ATCC 25922
[18] = system: Corynebacterium xerosis C875
Escherichia coli DC2 = system: Escherichia coli DC2
Escherichia coli UB1005 = system: Escherichia coli UB1005
[19] = system: Staphylococcus epidermidis C621

MIC (Acinetobacter baumannii): 6.25 µM (≈ 19.3 µg/mL)
MIC [1]: ≥ 50 µM
MIC [2]: 12.5 µM (≈ 38.7 µg/mL)
MIC [3]: 12.5 µM (≈ 38.7 µg/mL)
MIC [4]: ≥ 100 µM
MIC [5]: 25 µM (≈ 77.4 µg/mL)
MIC [6]: 6.25 µM (≈ 19.3 µg/mL)
MIC [7]: 6.25 µM (≈ 19.3 µg/mL)
MIC [8]: 1.6 µM (≈ 4.95 µg/mL)
MIC [9]: 1.6 µM (≈ 4.95 µg/mL)
MIC [10]: 3.1 µM (≈ 9.59 µg/mL)
Compound: CC[C@H](C)[C@H](N)C(=O)N[C@@H](CCCCN)C(=O)N[C@@H](CC(C)C)C(=O)N[C@@H](CO)C(=O)N[C@@H](CCCCN)C(=O)N[C@@H](CCC(=O)O)C(=O)N[C@H](C(=O)N[C@@H](CCCCN)C(=O)N[C@@H](CC(=O)O)C(=O)N[C@@H](CC(N)=O)C(=O)N[C@@H](CC(C)C)C(=O)N[C@@H](CCCCN)C(=O)N[C@@H](CCCCN)C(=O)N[C@H](C(=O)N[C@@H](CC(C)C)C(=O)N[C@@H](CCCCN)C(=O)NCC(=O)N[C@@H](C)C(=O)N[C@H](C(=O)N[C@@H](CCCCN)C(=O)NCC(=O)N[C@@H](C)C(=O)N[C@H](C(=O)N[C@@H](C)C(=O)N[C@H](C(=O)N[C@@H](C)C(=O)N[C@@H](CCCCN)C(=O)N[C@@H](CCSC)C(=O)N[C@H](C(N)=O)C(C)C)C(C)C)[C@@H](C)CC)[C@@H](C)CC)C(C)C)[C@@H](C)O [IKLSKETKDNLKKVLKGAIKGAIAVAKMV]

MIC [11]: 0.818 µM (≈ 1.56 µg/mL)
MIC [12]: 6.55 µM (≈ 12.5 µg/mL)
MIC [13]: 0.4 µM (≈ 0.763 µg/mL)
MIC [14]: 0.818 µM (≈ 1.56 µg/mL)
Compound: CC[C@H](C)[C@H](NC(=O)[C@H](CC(C)C)NC(=O)[C@@H]1CCCN1C(=O)[C@H](Cc1c[nH]c2ccccc12)NC(=O)[C@H](CCCCN)NC(=O)[C@H](Cc1c[nH]c2ccccc12)NC(=O)[C@@H]1CCCN1C(=O)[C@H](Cc1c[nH]c2ccccc12)NC(=O)[C@H](Cc1c[nH]c2ccccc12)NC(=O)[C@@H]1CCCN1C(=O)[C@H](Cc1c[nH]c2ccccc12)NC(=O)[C@H](CCCN=C(N)N)NC(=O)[C@@H](N)CCCN=C(N)N)C(N)=O [RRWPWWPWKWPLI]

MIC [15]: ≥ 34.5 µM
MIC [16]: ≥ 34.5 µM
MIC [17]: > 34.5 µM
MIC [6]: 12.9 µM (≈ 37.5 µg/mL)
Compound: CC[C@H](C)[C@H](NC(=O)[C@H](CCCCN)NC(=O)[C@H](C)NC(=O)CNC(=O)[C@@H](NC(=O)[C@@H](N)CO)[C@@H](C)CC)C(=O)N[C@@H](CC(C)C)C(=O)NCC(=O)NCC(=O)N[C@H](C(=O)N[C@@H](CCCCN)C(=O)N[C@H](C(=O)N[C@@H](Cc1ccccc1)C(=O)N[C@@H](Cc1ccccc1)C(=O)N[C@@H](CCCCN)C(=O)NCC(=O)N[C@@H](C)C(=O)N[C@@H](CC(C)C)C(=O)N[C@@H](CCCCN)C(=O)N[C@@H](CCC(=O)O)C(=O)N[C@@H](CC(C)C)C(=O)N[C@@H](C)C(=O)N[C@@H](Cc1ccccc1)C(=O)N[C@H](C(=O)N[C@@H](Cc1ccc(O)cc1)C(=O)N[C@@H](CC(C)C)C(=O)N[C@@H](CCC(N)=O)C(N)=O)[C@@H](C)O)[C@@H](C)O)C(C)C [SIGAKILGGVKTFFKGALKELAFTYLQ]

MIC [11]: 1.71 µM (≈ 3.13 µg/mL)
MIC [12]: 13.6 µM (≈ 25 µg/mL)
MIC [14]: 1.71 µM (≈ 3.13 µg/mL)
Compound: CC[C@H](C)[C@H](N)C(=O)N[C@@H](CC(C)C)C(=O)N1CCC[C@H]1C(=O)N[C@@H](CC(C)C)C(=O)N[C@@H](CCCCN)C(=O)N[C@@H](Cc1c[nH]c2ccccc12)C(=O)N1CCC[C@H]1C(=O)N[C@@H](Cc1c[nH]c2ccccc12)C(=O)N[C@@H](Cc1c[nH]c2ccccc12)C(=O)N1CCC[C@H]1C(=O)N[C@@H](Cc1c[nH]c2ccccc12)C(=O)N[C@@H](CCCN=C(N)N)C(=O)N[C@@H](CCCN=C(N)N)C(N)=O [ILPLKWPWWPWRR]

MIC [15]: ≥ 46.2 µM
MIC [16]: ≥ 46.2 µM
MIC [17]: 46.2 µM (≈ 100 µg/mL)
MIC [6]: 5.8 µM (≈ 12.6 µg/mL)
Compound: CC[C@H](C)[C@@H]1NC(=O)[C@H](CO)NC(=O)[C@H](CCCCN)NC(=O)[C@H]([C@@H](C)O)NC(=O)[C@H](Cc2c[nH]c3ccccc23)NC(=O)[C@@H](NC(=O)CNC(=O)[C@H](CCCN=C(N)N)NC(=O)[C@H](CC(C)C)NC(=O)[C@H](C)NC(=O)[C@H](C)N)CSSC[C@@H](C(=O)N2CCC[C@H]2C(=O)NCC(=O)N[C@@H](CCCCN)C(=O)N[C@@H](CCCN=C(N)N)C(=O)O)NC(=O)[C@@H]2CCCN2C(=O)[C@H](CCCCN)NC(=O)[C@@H]2CCCN2C(=O)[C@@H]2CCCN2C1=O [AALRGCWTKSIPPKPCPGKR]

MIC [15]: ≥ 37.8 µM
MIC [16]: ≥ 37.8 µM
MIC [17]: > 37.8 µM
MIC [6]: 7.11 µM (≈ 18.8 µg/mL)
Compound: CC[C@H](C)[C@H](NC(=O)CN)C(=O)NCC(=O)NCC(=O)N[C@H](C(=O)N[C@@H](CC(C)C)C(=O)N[C@@H](CC(C)C)C(=O)N[C@@H](CO)C(=O)N[C@@H](C)C(=O)NCC(=O)N[C@@H](CCCCN)C(=O)N[C@@H](C)C(=O)N[C@@H](C)C(=O)N[C@@H](CC(C)C)C(=O)N[C@@H](CCCCN)C(=O)NCC(=O)N[C@@H](CC(C)C)C(=O)N[C@H](C(=O)N[C@@H](CCCCN)C(=O)N[C@H](C(=O)N[C@@H](CC(C)C)C(=O)N[C@@H](C)C(=O)N[C@@H](CCC(=O)O)C(=O)N[C@@H](CCCCN)C(=O)N[C@@H](Cc1ccc(O)cc1)C(=O)N[C@@H](C)C(=O)N[C@@H](CC(N)=O)C(N)=O)C(C)C)[C@@H](C)O)C(C)C [GIGGVLLSAGKAALKGLTKVLAEKYAN]

MIC [11]: 1.73 µM (≈ 3.13 µg/mL)
MIC [12]: 27.6 µM (≈ 50 µg/mL)
MIC [14]: 3.45 µM (≈ 6.25 µg/mL)
Compound: CC[C@H](C)[C@H](N)C(=O)N[C@@H](CC(C)C)C(=O)N1CCC[C@H]1C(=O)N[C@@H](Cc1c[nH]c2ccccc12)C(=O)N[C@@H](CCCCN)C(=O)N[C@@H](Cc1c[nH]c2ccccc12)C(=O)N1CCC[C@H]1C(=O)N[C@@H](Cc1c[nH]c2ccccc12)C(=O)N[C@@H](CC(C)C)C(=O)N1CCC[C@H]1C(=O)N[C@@H](Cc1ccc(O)cc1)C(=O)N[C@@H](CCCN=C(N)N)C(=O)N[C@@H](CCCN=C(N)N)C(N)=O [ILPWKWPWLPYRR]

MIC [18]: 0.25 µM (≈ 0.632 µg/mL)
MIC (Escherichia coli DC2): 16 µM (≈ 40.4 µg/mL)
MIC (Escherichia coli UB1005): ≥ 32 µM
MIC [19]: 8 µM (≈ 20.2 µg/mL)
Compound: C[C@H](NC(=O)[C@H](C)NC(=O)[C@H](C)NC(=O)[C@H](Cc1ccc(O)cc1)NC(=O)[C@H](C)NC(=O)[C@H](C)NC(=O)[C@H](C)NC(=O)[C@H](CCCCN)NC(=O)[C@@H](N)CCCCN)C(=O)N[C@@H](C)C(=O)N[C@@H](C)C(=O)N[C@@H](Cc1ccc(O)cc1)C(=O)N[C@@H](C)C(=O)N[C@@H](C)C(=O)N[C@@H](Cc1c[nH]c2ccccc12)C(=O)N[C@@H](C)C(=O)N[C@@H](C)C(=O)N[C@@H](Cc1ccc(O)cc1)C(=O)N[C@@H](C)C(=O)N[C@@H](C)C(=O)N[C@@H](C)C(=O)N[C@@H](CCCCN)C(=O)N[C@@H](CCCCN)C(=O)N[C@@H](CCCCN)C(=O)N[C@@H](CCCCN)C(N)=O [KKAAAYAAAAAYAAWAAYAAAKKKK]

MIC (Acinetobacter baumannii): 3.1 µM (≈ 9.63 µg/mL)
MIC [1]: ≥ 50 µM
MIC [2]: 6.25 µM (≈ 19.4 µg/mL)
MIC [3]: 6.25 µM (≈ 19.4 µg/mL)
MIC [4]: ≥ 100 µM
MIC [5]: 12.5 µM (≈ 38.8 µg/mL)
MIC [6]: 3.1 µM (≈ 9.63 µg/mL)
MIC [7]: 6.25 µM (≈ 19.4 µg/mL)
MIC [8]: 1.6 µM (≈ 4.97 µg/mL)
MIC [9]: 1.6 µM (≈ 4.97 µg/mL)
MIC [10]: 3.1 µM (≈ 9.63 µg/mL)
Compound: CC[C@H](C)[C@H](N)C(=O)N[C@@H](CCCCN)C(=O)N[C@@H](CC(C)C)C(=O)N[C@@H](CO)C(=O)N[C@@H](CCCCN)C(=O)N[C@@H](CCC(=O)O)C(=O)N[C@H](C(=O)N[C@@H](CCCCN)C(=O)N[C@@H](CCCCN)C(=O)N[C@@H](CC(N)=O)C(=O)N[C@@H](CC(C)C)C(=O)N[C@@H](CCCCN)C(=O)N[C@@H](CCCCN)C(=O)N[C@H](C(=O)N[C@@H](CC(C)C)C(=O)N[C@@H](CCCCN)C(=O)NCC(=O)N[C@@H](C)C(=O)N[C@H](C(=O)N[C@@H](CCCCN)C(=O)NCC(=O)N[C@@H](C)C(=O)N[C@H](C(=O)N[C@@H](C)C(=O)N[C@H](C(=O)N[C@@H](C)C(=O)N[C@@H](CCCCN)C(=O)N[C@@H](CCSC)C(=O)N[C@H](C(N)=O)C(C)C)C(C)C)[C@@H](C)CC)[C@@H](C)CC)C(C)C)[C@@H](C)O [IKLSKETKKNLKKVLKGAIKGAIAVAKMV]
